Experiments:
p110 alpha = biological target: T1, p110 alpha (Homo sapiens, UniProt P42336); experiment: PI3K isoform inhibition assay (fluorescence polarization), p110 alpha, used for delta/alpha selectivity; details: ratio of biochemical IC50 values
T1 construct: purchased Upstate Group, Millipore; Dundee, UK
Protocol: (§1) PI3K enzymatic activity was assayed by measuring the amount of product phosphatidylinositol 3,4,5-phosphate (PIP3) formed from substrate 4,5 phosphatidylinositol 4,5-phosphate (PIP2) using a fluorescence polarization displacement assay. The decrease in fluorescence polarization of a fluorescent PIP3 probe is measured as it is displaced from a PIP3-binding protein GRP-1 detector by PI3K-catalyzed product. Assays were conducted in 384-well black Proxiplates in the presence of 10 mM Tris (pH 7.5), 50 mM NaCl, 4 mM MgCl2, 5% glycerol, 25 μM ATP, 10 μM PIP2 (Echelon Biosciences), 0.05% 3-[(3-cholamidopropyl)dimethylammonio]-1-propanesulfonate, 1 mM dithiothreitol, and 2% DMSO. The kinase reactions were initiated by the addition of 40 ng/mL p110α/p85α, 300 ng/mL p110β/p85α, 40 ng/mL p110γ, or 40 ng/mL p110δ/p85α (Upstate Group, Millipore; Dundee, UK), and 10 μM PIP2 (Echelon Biosciences) to the wells. The reactions were stopped at timepoints that yielded a fixed change in fluorescence polarization consistent with initial rate conditions (typically 30 minutes), by the addition of 12.5 mM EDTA, 100 nM GRP-1 detector, and 5 nM tetramethylrhodamine-labeled PIP3 (TAMRA-PIP3; Echelon Biosciences). After 60 minutes of incubation at room temperature to allow equilibration of labeled and unlabeled PIP3 binding, the parallel and perpendicular components of the fluorescence emissions from each sample were measured at an excitation wavelength of 530 nm and an emission wavelength of 590 nm using an Envision fluorescent plate reader with a rhodamine filter (PerkinElmer Life and Analytical Sciences; Wellesley, Mass.). The assay is capable of detecting 0.1-2.0 μM PIP3 product. The IC50 values were obtained by fitting the dose-dependent inhibition data to a 4-parameter equation using Assay Explorer software (MDL, San Ramon, Calif.). […]
The same protocol was used to establish IC50 values for p110α (alpha) PI3K binding. […]

p110 delta = biological target: T2, p110 delta (Homo sapiens, UniProt O00329); experiment: PI3K isoform inhibition assay (fluorescence polarization), p110 delta; assay type: biochemical; details: p110 delta binding IC50, Example 901
T2 construct: purchased Upstate Group, Millipore; Dundee, UK
Protocol: as §1
Recombinant PI3K p110 isoforms alpha, beta, and delta may be prepared and purified according to US 2008/0275067 from recombinant PI3K heterodimeric complexes consisting of a p110 catalytic subunit and a p85 regulatory subunit overexpressed using the BAC-TO-BAC® HT baculovirus expression system (GIBCO/BRL), and then purified for use in biochemical assays. The four Class I PI 3-kinases are cloned into baculovirus vectors as follows:
p110 delta: A FLAG™-tagged (Eastman Kodak Co., U.S. Pat. No. 4,703,004; U.S. Pat. No. 4,782,137; U.S. Pat. No. 4,851,341) version of human p110.delta (Chantry et al., J. Biol. Chem. (1997) 272:19236-41) is subcloned using standard recombinant DNA techniques into the BamH1-Xba1 site of the insect cell expression vector pFastbac HTb (Life Technologies, Gaithersburg, Md.), such that the clone is in frame with the His tag of the vector.

[1] = tested on: production of CD69 by B lymphocytes in human whole blood activated with goat F(ab')2 anti-human IgM; experiment: CD69 Whole Blood Assay; assay type: cell-based; details: Lymphocyte, anti-IgM stimulated, CD69 positive of CD20 positive cells, 20 hours
Excerpt: There is good evidence that B-cells play a key role in the pathogenesis of autoimmune and/or inflammatory disease. Protein-based therapeutics that deplete B cells such as Rituxan are effective against autoantibody-driven inflammatory diseases such as rheumatoid arthritis (Rastetter et al. (2004) Annu Rev Med 55:477). CD69 is the early activation marker in leukocytes including T cells, thymocytes, B cells, NK cells, neutrophils, and eosinophils. The CD69 human whole blood assay (Example 903) determines the ability of compounds to inhibit the production of CD69 by B lymphocytes in human whole blood activated by crosslinking surface IgM with goat F(ab′)2 anti-human IgM.
Human blood is obtained from healthy volunteers, with the following restrictions: 1 week drug-free, non-smokers. Blood (approximately 20 mls to test 8 compounds) is collected by venipuncture into Vacutainer tubes with sodium heparin.
Solutions of Formula I compounds at 1000 or 2000 μM in PBS (20×), are diluted by three-fold serial dilutions in 10% DMSO in PBS for a nine point dose-response curve. An aliquot of 5.5 μl of each compound is added in duplicate to a 2 ml 96-well plate; 5.5 μl of 10% DMSO in PBS is added as control and no-stimulus wells. Human whole blood-HWB (100 μl) is added to each well. After mixing the plates are incubated at 37° C., 5% CO2, 100% humidity for 30 minutes. Goat F(ab′)2 anti-human IgM (10 μl of a 500 μg/ml solution, 50 μg/ml final) is added to each well (except the no-stimulus wells) with mixing and the plates are incubated for an additional 20 hours. At the end of the 20 hour incubation, samples are incubated with florescent labeled antibodies for 30 minutes, at 37° C., 5% CO2, 100% humidity. Include induced control, unstained and single stains for compensation adjustments and initial voltage settings. Samples are then lysed with Pharmingen Lyse according to the manufacturer's instructions. Samples are then transferred to a 96 well plate suitable to be run on the AMS 96 well system on the BD Calibur FACs machine. Data acquired and Mean Fluorescence Intensity values were obtained using Cell Quest Software. Results are initially analyzed by FACS analysis software (Flow Jo). […] The IC50 values are calculated by ActivityBase using Xlfit version 3, equation 201.

T2 sequence (O00329 whole entry, canonical isoform): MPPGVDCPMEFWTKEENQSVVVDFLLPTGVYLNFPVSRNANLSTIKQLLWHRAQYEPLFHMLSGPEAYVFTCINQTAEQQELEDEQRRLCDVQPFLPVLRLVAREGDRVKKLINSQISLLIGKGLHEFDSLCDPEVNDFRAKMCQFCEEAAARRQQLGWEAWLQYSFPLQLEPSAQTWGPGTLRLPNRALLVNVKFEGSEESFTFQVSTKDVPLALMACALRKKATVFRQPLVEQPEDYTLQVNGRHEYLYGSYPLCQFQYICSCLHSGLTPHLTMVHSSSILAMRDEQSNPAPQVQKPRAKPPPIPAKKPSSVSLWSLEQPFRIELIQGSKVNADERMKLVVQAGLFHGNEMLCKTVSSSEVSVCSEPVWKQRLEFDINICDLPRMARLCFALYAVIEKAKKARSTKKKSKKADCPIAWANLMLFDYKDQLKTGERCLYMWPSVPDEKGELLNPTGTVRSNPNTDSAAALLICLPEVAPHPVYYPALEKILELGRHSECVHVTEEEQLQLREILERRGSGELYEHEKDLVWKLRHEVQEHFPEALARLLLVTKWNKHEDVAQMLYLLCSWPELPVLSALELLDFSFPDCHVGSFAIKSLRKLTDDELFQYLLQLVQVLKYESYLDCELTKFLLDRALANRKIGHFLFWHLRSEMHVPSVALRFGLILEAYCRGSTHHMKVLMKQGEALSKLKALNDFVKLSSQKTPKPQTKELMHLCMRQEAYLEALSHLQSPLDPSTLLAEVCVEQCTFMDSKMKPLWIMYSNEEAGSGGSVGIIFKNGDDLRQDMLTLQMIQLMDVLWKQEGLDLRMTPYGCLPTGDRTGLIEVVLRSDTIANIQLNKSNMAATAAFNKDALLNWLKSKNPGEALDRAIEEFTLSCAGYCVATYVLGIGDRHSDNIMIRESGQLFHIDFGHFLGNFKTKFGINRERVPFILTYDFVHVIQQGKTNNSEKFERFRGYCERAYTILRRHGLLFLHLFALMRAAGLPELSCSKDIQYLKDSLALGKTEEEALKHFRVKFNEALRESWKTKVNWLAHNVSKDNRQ
T2 sequence (P27986 whole entry partner, canonical isoform): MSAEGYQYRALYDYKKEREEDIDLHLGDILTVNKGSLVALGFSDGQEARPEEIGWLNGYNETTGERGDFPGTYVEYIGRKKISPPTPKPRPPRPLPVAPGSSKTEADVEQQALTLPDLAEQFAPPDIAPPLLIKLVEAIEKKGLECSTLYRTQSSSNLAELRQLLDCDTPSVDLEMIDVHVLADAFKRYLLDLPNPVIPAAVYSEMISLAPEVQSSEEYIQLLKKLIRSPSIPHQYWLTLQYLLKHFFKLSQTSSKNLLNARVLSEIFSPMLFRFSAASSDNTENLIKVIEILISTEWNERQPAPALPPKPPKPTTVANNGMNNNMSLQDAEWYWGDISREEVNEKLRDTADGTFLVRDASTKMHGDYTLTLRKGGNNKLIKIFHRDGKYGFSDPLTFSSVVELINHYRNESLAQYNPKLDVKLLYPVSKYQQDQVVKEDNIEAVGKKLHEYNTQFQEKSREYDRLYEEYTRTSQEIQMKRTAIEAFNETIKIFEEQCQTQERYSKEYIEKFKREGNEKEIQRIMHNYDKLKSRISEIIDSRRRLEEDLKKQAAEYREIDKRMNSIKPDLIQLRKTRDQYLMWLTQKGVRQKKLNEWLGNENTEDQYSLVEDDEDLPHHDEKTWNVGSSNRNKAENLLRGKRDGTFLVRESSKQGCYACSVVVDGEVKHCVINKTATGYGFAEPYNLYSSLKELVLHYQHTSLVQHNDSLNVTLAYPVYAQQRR
T1 sequence (P42336 whole entry, canonical isoform): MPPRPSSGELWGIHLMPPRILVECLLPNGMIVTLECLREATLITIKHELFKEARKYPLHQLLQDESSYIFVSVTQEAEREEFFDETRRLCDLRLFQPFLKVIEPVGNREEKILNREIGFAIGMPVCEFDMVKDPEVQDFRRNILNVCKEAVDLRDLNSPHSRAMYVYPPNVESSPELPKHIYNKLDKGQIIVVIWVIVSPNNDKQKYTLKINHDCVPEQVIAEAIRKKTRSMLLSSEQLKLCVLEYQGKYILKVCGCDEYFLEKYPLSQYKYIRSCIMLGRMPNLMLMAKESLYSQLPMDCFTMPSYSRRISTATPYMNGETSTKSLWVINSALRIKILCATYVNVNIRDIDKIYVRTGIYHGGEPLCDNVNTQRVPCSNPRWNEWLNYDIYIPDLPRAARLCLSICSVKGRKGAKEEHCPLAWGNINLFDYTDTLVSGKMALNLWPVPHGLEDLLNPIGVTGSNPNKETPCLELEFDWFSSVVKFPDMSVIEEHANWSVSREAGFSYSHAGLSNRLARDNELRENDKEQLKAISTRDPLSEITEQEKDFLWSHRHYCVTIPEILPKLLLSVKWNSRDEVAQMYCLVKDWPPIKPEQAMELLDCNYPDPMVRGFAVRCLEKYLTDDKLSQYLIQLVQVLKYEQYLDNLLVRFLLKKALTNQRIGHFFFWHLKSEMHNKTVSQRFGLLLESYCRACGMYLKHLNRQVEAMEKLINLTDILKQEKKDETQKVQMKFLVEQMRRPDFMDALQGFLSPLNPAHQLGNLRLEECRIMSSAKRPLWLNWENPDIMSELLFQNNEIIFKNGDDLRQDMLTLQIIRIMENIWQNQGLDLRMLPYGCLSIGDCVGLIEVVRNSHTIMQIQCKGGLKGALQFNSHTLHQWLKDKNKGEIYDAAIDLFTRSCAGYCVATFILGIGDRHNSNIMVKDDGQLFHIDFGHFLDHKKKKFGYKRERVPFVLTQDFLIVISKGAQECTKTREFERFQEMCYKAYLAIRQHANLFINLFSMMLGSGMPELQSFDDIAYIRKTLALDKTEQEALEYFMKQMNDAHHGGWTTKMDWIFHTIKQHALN
T1 sequence (P27986 whole entry partner, canonical isoform): as the sequence (P27986 whole entry partner, canonical isoform) above

Row | SMILES | IC50 p110 alpha/IC50 p110 delta (p110 alpha) | IC50 (p110 delta) | IC50 [1]
1 | Cc1cc2cc(F)ccc2n1-c1nc(N2CCOCC2)c2sc(CN3CCC(N(C)C)CC3)cc2n1 [Compound 119, 1-((2-(5-fluoro-2-methyl-1H-indol-1-yl)-4-morpholinothieno[3,2-d]pyrimidin-6-yl)methyl)-N,N-dimethylpiperidin-4-amine] | 68 | 23.6 nM | 950 nM
2 | CN(C)C1CCN(Cc2cc3nc(-n4ccc5cc(O)ccc54)nc(N4CCOCC4)c3s2)CC1 [Compound 132, 1-(6-((4-(dimethylamino)piperidin-1-yl)methyl)-4-morpholinothieno[3,2-d]pyrimidin-2-yl)-1H-indol-5-ol] | 37 | 22 nM | 
3 | Cn1c(CN2CCC(N3CCOCC3)CC2)nc2c(N3CCOCC3)nc(-c3c[nH]c4ccccc34)nc21 [Compound 104, 4-(1-((2-(1H-indol-3-yl)-9-methyl-6-morpholino-9H-purin-8-yl)methyl)piperidin-4-yl)morpholine] | 105 | 47.7 nM | 623 nM
4 | CN(C)C1CCN(Cc2cc3nc(-c4c[nH]c5ccc(F)cc45)nc(N4CCOCC4)c3s2)CC1 [Compound 113, 1-((2-(5-fluoro-1H-indol-3-yl)-4-morpholinothieno[3,2-d]pyrimidin-6-yl)methyl)-N,N-dimethylpiperidin-4-amine] | 13 | 102 nM | 
5 | COCc1cc2ccccc2n1-c1nc(N2CCOCC2)c2nc(CN3CCC(C(C)(C)O)CC3)n(C)c2n1 [Compound 127, 2-(1-((2-(2-(methoxymethyl)-1H-indol-1-yl)-9-methyl-6-morpholino-9H-purin-8-yl)methyl)piperidin-4-yl)propan-2-ol] | 186 | 29 nM | 891 nM
6 | CN(C)C1CCN(Cc2cc3nc(-c4c[nH]c5ccccc45)nc(N4CCOCC4)c3s2)CC1 [Compound 101, 1-((2-(1H-indol-3-yl)-4-morpholinothieno[3,2-d]pyrimidin-6-yl)methyl)-N,N-dimethylpiperidin-4-amine] | 101 |  | 17.3 nM
7 | Cn1c(CN2CCC(C(C)(C)O)CC2)nc2c(N3CCOCC3)nc(-c3c[nH]c4cc(F)ccc34)nc21 [Compound 124, 2-(1-((2-(6-fluoro-1H-indol-3-yl)-9-methyl-6-morpholino-9H-purin-8-yl)methyl)piperidin-4-yl)propan-2-ol] | >160 | 616 nM | 
8 | O=C1COC2(CCN(Cc3cc4nc(-c5c[nH]c6ccccc56)nc(N5CCOCC5)c4s3)CC2)CN1 [Compound 116, 9-((2-(1H-indol-3-yl)-4-morpholinothieno[3,2-d]pyrimidin-6-yl)methyl)-1-oxa-4,9-diazaspiro[5.5]undecan-3-one] | 25 | 55 nM | 

Further lines, results first:

Row | IC50 p110 alpha/IC50 p110 delta (p110 alpha) | IC50 (p110 delta) | IC50 [1] | SMILES
9 | 63 | 8.4 nM |  | CC(C)(OCCN1CCCC1)c1cc2nc(-c3c[nH]c4ccccc34)nc(N3CCOCC3)c2s1 [Compound 125]
10 | 198 | 2 nM | 84 nM | c1ccc2c(-c3nc(N4CCOCC4)c4nc(CN5CC(N6CCOCC6)C5)sc4n3)c[nH]c2c1 [Compound 117, 4-(5-(1H-indol-3-yl)-2-((3-morpholinoazetidin-1-yl)methyl)thiazolo[5,4-d]pyrimidin-7-yl)morpholine]
11 | 265 | 20 nM | 4600 nM | Cn1c(CN2CCC(C(C)(C)O)CC2)nc2c(N3CCOCC3)nc(-n3c(C#N)cc4ccccc43)nc21 [Compound 136, 1-(8-((4-(2-hydroxypropan-2-yl)piperidin-1-yl)methyl)-9-methyl-6-morpholino-9H-purin-2-yl)-1H-indole-2-carbonitrile]
12 | 34 | 20.8 nM | 1700 nM | CN(C)C1CCN(Cc2cc3nc(N4CCc5ccccc54)nc(N4CCOCC4)c3s2)CC1 [Compound 102, 1-((2-(indolin-1-yl)-4-morpholinothieno[3,2-d]pyrimidin-6-yl)methyl)-N,N-dimethylpiperidin-4-amine]
13 | 238 | 3.4 nM |  | CC(C)(C(N)=O)N1CCN(Cc2cc3nc(-c4c(C#N)[nH]c5ccccc45)nc(N4CCOCC4)c3s2)CC1 [Compound 129, 2-(4-((2-(2-cyano-1H-indol-3-yl)-4-morpholinothieno[3,2-d]pyrimidin-6-yl)methyl)piperazin-1-yl)-2-methylpropanamide]
14 | 96 | 7.5 nM | 188 nM | CN(C)[C@@H]1CCN(Cc2nc3c(N4CCOCC4)nc(-c4c[nH]c5ccccc45)nc3n2C)C[C@@H]1F [Compound 122, (3S,4R)-1-((2-(1H-indol-3-yl)-9-methyl-6-morpholino-9H-purin-8-yl)methyl)-3-fluoro-N,N-dimethylpiperidin-4-amine]
15 | 54 | 10.4 nM |  | CN(C)C1CCN(Cc2cc3nc(-n4ccc5ccccc54)nc(N4CCOCC4)c3s2)CC1 [Compound 103, 1-((2-(1H-indol-1-yl)-4-morpholinothieno[3,2-d]pyrimidin-6-yl)methyl)-N,N-dimethylpiperidin-4-amine]

Source: patent US8158625B2, “Bicyclic indole-pyrimidine PI3K inhibitor compounds selective for P110 delta, and methods of use” (Genentech, Inc., priority 2009, dated 2012)
